According to PMC10766964, “Copper-catalyzed synthesis of pyrazolo[1,5-a]pyrimidine based triazole-linked glycohybrids: mechanistic insights and bio-applications” (Scientific Reports, 2024):
Where two headings read alike, the source gives them in different places.

Legend:
[1] = test system: MDA-MB-231 (human breast cancer) cell line; experiment: MTT cell viability assay in MDA-MB-231 cells; type: cell-based; details: 72 h; for viability at 0.02 µM: positive control at 20 nM; for viability at 20 µM: positive control at 20 µM
Description: Thus, we screened the synthesized library of pyrazolo[1,5-a]pyrimidin-7-ols 4a–4i. Anticancer activity (in terms of growth inhibition/decreased cell viability with respect to control) of all synthesized compounds (n = 9) was investigated by MTT assay in MDA-MB-231 (human breast cancer) cell line at different concentrations for 72 h. […] Thus, it was aimed to investigate the anticancer activity of a synthesized library of triazole-linked glycohybrids of pyrazolo[1,5-a]pyrimidines. […] The MTT assay was used to investigate the anticancer activity of twenty-seven synthesized compounds on the growth inhibition and decrement in cell viability of MDA-MB-231 (human breast cancer). Different concentrations were tested for 72 h, and the results were compared to a control. MDA-MB-231, a human breast cancer cell line, was cultured under standard conditions. Specifically, they were grown in Dulbecco’s Modified Eagle’s Medium (DMEM) supplemented with 10% heat-inactivated Fetal Bovine Serum (FBS) and 1% penicillin–streptomycin. The cells were maintained as a monolayer in a 100 mm culture plate and were used for experiments before reaching their 8th passage. Subculturing was performed every third-day using trypsin EDTA treatment. All incubation and maintenance procedures were carried out in a humidified CO2 incubator at 37 °C. To evaluate cell viability, the MTT assay was conducted following standard procedures. After 72 h of cell incubation with or without each compound, cell viability was assessed using MTT (3-(4,5-dimethylthiazol-2-yl)-2,5-diphenyltetrazolium bromide), which is a colorimetric method for determining the number of viable cells in various assays including proliferation, cytotoxicity, or chemosensitivity. The MTT reagent was added to the cells after removal of the medium and incubated for 3 h at 37 °C in the CO2 incubator. The formazan product, which is […] in the tissue culture medium, was dissolved in DMSO, and the absorbance of the formazan product was directly measured at 595 nm using a multimode plate reader without additional processing. The absorbance values are directly proportional to the number of viable cells in culture. The percentage of viable cells in each group was determined relative to the untreated control cells.

[2] = MTT cell viability assay in normal MCF-10A cells; type: cell-based; details: human, MCF-10A normal mammary epithelial cells; MCF-10A normal cells, positive control at 20 nM; read-out: Cell viability (%) ± SD
Description: (§1) We also included normal mammary epithelial MCF-10A cells in our experiments to confirm if the growth-inhibitory activities of the selected compounds are truly cancer cell-specific. The activity data from MCF-7 and MDA-MB-453 cell lines (tested at 1 µM, 10 µM and 25 µM) and activity data from MCF-10A cell line (tested at 25 µM, 50 µM and 100 µM) are summarized in Table 3. To evaluate cell viability, the MTT assay was conducted following standard procedures. After 72 h of cell incubation with or without each compound, cell viability was assessed using MTT (3-(4,5-dimethylthiazol-2-yl)-2,5-diphenyltetrazolium bromide), which is a colorimetric method for determining the number of viable cells in various assays including proliferation, cytotoxicity, or chemosensitivity. The MTT reagent was added to the cells after removal of the medium and incubated for 3 h at 37 °C in the CO2 incubator. The formazan product, which is […] in the tissue culture medium, was dissolved in DMSO, and the absorbance of the formazan product was directly measured at 595 nm using a multimode plate reader without additional processing. The absorbance values are directly proportional to the number of viable cells in culture. The percentage of viable cells in each group was determined relative to the untreated control cells.

[3] = test system: MCF-7 (hormone receptor/HR-positive breast cancer cells); experiment: MTT cell viability assay in MCF-7 cells; type: cell-based; details: Homo sapiens, MCF7; MCF-7, positive control at 20 nM; read-out: Cell viability (%) ± SD
Description: MDA-MB-231 represents a specific subtype known as triple-negative breast cancer (TNBC). The investigation study was extended with active six hit compounds (9a, 9d, 9h, 10d, 10f, and 11g) in two other different cancer cell lines (MCF-7 and MDA-MB-453), each representing a separate class of breast cancers (MCF-7: hormone receptor/HR-positive; MDA-MB-453: human epidermal growth factor 2 receptor/HER2 positive).
We also included normal mammary epithelial MCF-10A cells in our experiments to confirm if the growth-inhibitory activities of the selected compounds are truly cancer cell-specific. The activity data from MCF-7 and MDA-MB-453 cell lines (tested at 1 µM, 10 µM and 25 µM) and activity data from MCF-10A cell line (tested at 25 µM, 50 µM and 100 µM) are summarized in Table 3.
as §1, with “To” for “We also included normal mammary epithelial MCF-10A cells in our experiments to confirm if the growth-inhibitory activities of the selected compounds are truly cancer cell-specific. The activity data from MCF-7 and MDA-MB-453 cell lines (tested at 1 µM, 10 µM and 25 µM) and activity data from MCF-10A cell line (tested at 25 µM, 50 µM and 100 µM) are summarized in Table 3. To”

[4] = test system: MDA-MB-453 (HER2 positive breast cancer cells); experiment: MTT cell viability assay in MDA-MB-453 cells; type: cell-based, human; details: Homo sapiens; MDA-MB-453, positive control at 20 nM; read-out: Cell viability (%) ± SD
Description: as §1, with “MDA-MB-231 represents a specific subtype known as triple-negative breast cancer (TNBC). The investigation study was extended with active six hit compounds (9a, 9d, 9h, 10d, 10f, and 11g) in two other different cancer cell lines (MCF-7 and MDA-MB-453), each representing a separate class of breast cancers (MCF-7: hormone receptor/HR-positive; MDA-MB-453: human epidermal growth factor 2 receptor/HER2 positive). […] We” for “We”

[5] = Table 2, MDA-MB-231, MTT, read-out: Cell viability (%) ± SD
[6] = Table 1, MDA-MB-231, MTT, read-out: Cell Viability (%) ± SD

Row | Structure (SMILES) | viability at 10 µM [1, 5] [%] | viability at 25 µM [1, 5] [%] | viability at 50 µM [1, 5] [%] | viability at 10 µM [1, 6] [%] | viability at 25 µM [1, 6] [%] | viability at 50 µM [1, 6] [%] | other results
1 | CC(=O)OC[C@H]1O[C@H](n2cc(COc3cc(-c4ccc(Cl)cc4)nc4ccnn34)nn2)[C@@H](OC(C)=O)[C@@H](OC(C)=O)[C@@H]1OC(C)=O [Compound 11d, (2R,3R,4S,5S,6S)-2-(acetoxymethyl)-6-(4-(((5-(4-chlorophenyl)pyrazolo[1,5-a]pyrimidin-7-yl)oxy)methyl)-1H-1,2,3-triazol-1-yl)tetrahydro-2H-pyran-3,4,5-triyl triacetate] | 95.8 ± 5.85 | 92.1 ± 6 | 89 ± 1.1 |  |  |  | 
2 | COCCn1c2c([n+](Cc3cnccn3)c1C)C(=O)c1ccccc1C2=O [YM155, reference compound] |  |  |  |  |  |  | viability at 72 h, 0.02 µM [2]: 38.2 ± 1.6%; viability at 0.02 µM [3]: 32.2 ± 1.7%; viability at 0.02 µM [1, 6]: 20.4 ± 5.13%; viability at 0.02 µM [1, 5]: 26.4 ± 3.93%; viability at 0.02 µM [4]: 35.2 ± 1.5%
3 | Cc1ccc(-c2cc(O)n3nccc3n2)cc1 [Compound 4a] |  |  |  | 91.4 ± 4.38 | 85.5 ± 3.74 | 84.4 ± 2.16 | 
4 | Oc1cc(-c2ccc3ccccc3c2)nc2ccnn12 [Compound 4h] |  |  |  | 89.1 ± 4.09 | 86.5 ± 2.58 | 84.4 ± 7.36 | 
5 | Oc1cc(-c2ccc(Cl)cc2)nc2ccnn12 [Compound 4d] |  |  |  | 98.6 ± 2.25 | 95.2 ± 1.96 | 87.2 ± 9.22 | 
6 | Oc1cc(-c2ccc(C(F)(F)F)cc2)nc2ccnn12 [Compound 4f] |  |  |  | 92.2 ± 8.51 | 88.8 ± 8.75 | 72.8 ± 7.02 | 
7 | Oc1cc(-c2ccc(F)cc2)nc2ccnn12 [Compound 4e] |  |  |  | 86.6 ± 9.76 | 78.1 ± 3.51 | 69.5 ± 5.69 | 
8 | CC(=O)OC[C@H]1O[C@H](n2cc(COc3cc(-c4ccc(C)cc4)nc4ccnn34)nn2)[C@@H](OC(C)=O)[C@@H](OC(C)=O)[C@@H]1OC(C)=O [Compound 11a, (2R,3R,4S,5S,6S)-2-(acetoxymethyl)-6-(4-(((5-(p-tolyl)pyrazolo[1,5-a]pyrimidin-7-yl)oxy)methyl)-1H-1,2,3-triazol-1-yl)tetrahydro-2H-pyran-3,4,5-triyl triacetate] | 98 ± 7.7 | 91.8 ± 7.09 | 96.7 ± 9.12 |  |  |  | 
9 | CC1=CC(=O)c2ccccc2C1=O [Menadione, menadione, reference compound] |  |  |  |  |  |  | viability at 20 µM [1, 6]: 21.8 ± 4.7%; viability at 20 µM [1, 5]: 20.8 ± 6.7%
10 | CC(=O)OC[C@H]1O[C@@H](n2cc(COc3cc(-c4ccc(C(C)C)cc4)nc4ccnn34)nn2)[C@H](OC(C)=O)[C@@H](OC(C)=O)[C@H]1OC(C)=O [Compound 10g, (2R,3S,4S,5R,6R)-2-(acetoxymethyl)-6-(4-(((5-(4-isopropylphenyl)pyrazolo[1,5-a]pyrimidin-7-yl)oxy)methyl)-1H-1,2,3-triazol-1-yl)tetrahydro-2H-pyran-3,4,5-triyl triacetate] | 85.2 ± 3.5 | 79.5 ± 8.96 | 78.7 ± 2.56 |  |  |  | 
11 | CC(=O)OC[C@H]1O[C@@H](n2cc(COc3cc(-c4ccc(Br)cc4)nc4ccnn34)nn2)[C@H](OC(C)=O)[C@@H](OC(C)=O)[C@H]1OC(C)=O [Compound 10c, (2R,3S,4S,5R,6R)-2-(acetoxymethyl)-6-(4-(((5-(4-bromophenyl)pyrazolo[1,5-a]pyrimidin-7-yl)oxy)methyl)-1H-1,2,3-triazol-1-yl)tetrahydro-2H-pyran-3,4,5-triyl triacetate] | 79.5 ± 2.43 | 77.8 ± 2.43 | 74 ± 2.62 |  |  |  | 
12 | CC(=O)OC[C@H]1O[C@H](n2cc(COc3cc(-c4ccc5ccccc5c4)nc4ccnn34)nn2)[C@@H](OC(C)=O)[C@@H](OC(C)=O)[C@@H]1OC(C)=O [Compound 11h, (2R,3R,4S,5S,6S)-2-(acetoxymethyl)-6-(4-(((5-(naphthalen-2-yl)pyrazolo[1,5-a]pyrimidin-7-yl)oxy)methyl)-1H-1,2,3-triazol-1-yl)tetrahydro-2H-pyran-3,4,5-triyl triacetate] | 101 ± 9.28 | 89.8 ± 2.22 | 82.5 ± 5.45 |  |  |  | 
13 | CC(C)c1ccc(-c2cc(O)n3nccc3n2)cc1 [Compound 4g, 5-(4-isopropylphenyl)pyrazolo[1,5-a]pyrimidin-7-ol] |  |  |  | 101 ± 5.51 | 98.1 ± 2.51 | 70.5 ± 5.69 | 
14 | CC(=O)OC[C@H]1O[C@@H](n2cc(COc3cc(-c4ccc(Br)cc4)nc4ccnn34)nn2)[C@H](OC(C)=O)[C@@H](OC(C)=O)[C@@H]1OC(C)=O [Compound 9c, (2R,3R,4S,5R,6R)-2-(acetoxymethyl)-6-(4-(((5-(4-bromophenyl)pyrazolo[1,5-a]pyrimidin-7-yl)oxy)methyl)-1H-1,2,3-triazol-1-yl)tetrahydro-2H-pyran-3,4,5-triyl triacetate] | 100 ± 8.01 | 100 ± 8.93 | 99.5 ± 2.89 |  |  |  | 
